Experimental data as given in patent publication US10568879B2 (GALAPAGOS NV, priority 2015, dated 2020).

Biological target: T1, GPR84 (Homo sapiens, UniProt Q9NQS5)
T1 construct: expressed in transfected cells
Assay: GPR84 [35S]GTPγS binding assay
Type: biochemical
Settings: 3,3′-diindolylmethane at EC80; membranes from stable cell line over expressing GPR84
Protocol: The following assay can be used for determination of GPR84 activation. The [^35S]GTPγS binding assay measures the level of G protein activation following agonist occupation of a GPCR, by determining the binding of the non-hydrolysable analog [^35S]GTPγS to Gα subunits.
The assay is performed in a 96-well plate where the following reagents are added. First 50 μL compound is added into the assay plate, followed by addition of 20 μL 3,3′-diindolylmethane at EC80 concentration (concentration which gives 80% of the activity of GPR84). Then, 30 μL of a mixture consisting of membranes-GTPγS-SpA beads is added [mixture consists of 20 μg/well membranes derived from stable cell line over expressing GPR84 (membranes are pre-incubated with 0.1 μM GDP for 15 min at 4° C.), 0.1 nM [^35S]GTPγS (Perkin Elmer, NEG030) and 0.5 mg/well PVT-WGA SpA beads (Perkin Elmer, RPNQ0001)]. All components are diluted in assay buffer containing 20 mM Tris pH 7.5; 5 mM MgCl2; 250 mM NaCl; 0.05% BSA; 75 μg/mL saponin. After an incubation of 90 min at room temperature, 20 μL CsCl2 0.8 M (MP Biomedicals, 02150589) is added, followed by centrifugation at 2000 rpm during 20 min. Plates are read on a topcount reader (perkin elmer) immediately after centrifugation (readout time, 1 min/well).

T1 sequence (Q9NQS5 whole entry): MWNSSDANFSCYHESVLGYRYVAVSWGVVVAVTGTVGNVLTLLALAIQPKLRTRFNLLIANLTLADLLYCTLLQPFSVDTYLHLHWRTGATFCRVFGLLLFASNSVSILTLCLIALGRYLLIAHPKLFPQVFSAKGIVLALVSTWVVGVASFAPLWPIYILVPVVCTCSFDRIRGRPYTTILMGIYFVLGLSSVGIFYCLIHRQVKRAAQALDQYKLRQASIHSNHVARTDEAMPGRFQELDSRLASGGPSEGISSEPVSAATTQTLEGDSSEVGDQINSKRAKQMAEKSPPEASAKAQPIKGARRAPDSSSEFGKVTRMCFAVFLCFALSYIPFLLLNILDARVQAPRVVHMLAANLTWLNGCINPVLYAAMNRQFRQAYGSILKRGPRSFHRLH

IC50 | SMILES
> 1000 nM | COc1cc2c(cc1OC)-c1c(C)c(=O)cc(NCC3CCCO3)n1CC2 (stereo not drawn) [Compound 2, 9,10-dimethoxy-1-methyl-4-(tetrahydrofuran-2-ylmethylamino)-6,7-dihydrobenzo[a]quinolizin-2-one]
> 1000 nM | CCc1c2n(c(NCC3CCCO3)cc1=O)CCc1cc(O)ccc1-2 (stereo not drawn) [Compound 3, 1-ethyl-9-hydroxy-4-(tetrahydrofuran-2-ylmethylamino)-6,7-dihydrobenzo[a]quinolizin-2-one]
> 1000 nM | COc1cc2c(cc1OC)-c1cc(=O)cc(NCC3COCCO3)n1CC2 (stereo not drawn) [Compound 5, 4-[([1,4]Dioxan-2-ylmethyl)-amino]-9,10-dimethoxy-6,7-dihydro-pyrido[2,1-a]isoquinolin-2-one]
0.01 to 100 nM | Cc1c2n(c(OCC3CCCO3)cc1=O)CCc1cc(OCC3CCCOC3)ccc1-2 (stereo not drawn) [Compound 47, 1-methyl-4-(tetrahydrofuran-2-ylmethoxy)-9-(tetrahydropyran-3-ylmethoxy)-6,7-dihydrobenzo[a]quinolizin-2-one]
> 1000 nM | Cc1c2n(c(OCC3CCCO3)cc1=O)CCc1cc(OCCN(C)C)ccc1-2 (stereo not drawn) [Compound 53, 9-(2-dimethylaminoethyloxy)-1-methyl-4-(tetrahydrofuran-2-ylmethoxy)-6,7-dihydrobenzo[a]quinolizin-2-one]
500 to 1000 nM | Cc1c2n(c(OCC3CCCCO3)cc1=O)CCc1cc(OCCN(C)C)ccc1-2 (stereo not drawn) [Compound 54, 9-(2-dimethylaminoethyloxy)-1-methyl-4-(tetrahydropyran-2-ylmethoxy)-6,7-dihydrobenzo[a]quinolizin-2-one]
500 to 1000 nM | Cc1c2n(c(OC[C@@H]3COCCO3)cc1=O)CCc1cc(OCCN(C)C)ccc1-2 [Compound 55, 9-(2-dimethylaminoethyloxy)-4-[[(2S)-1,4-dioxan-2-yl]methoxy]-1-methyl-6,7-dihydrobenzo[a]quinolizin-2-one]
100 to 500 nM | Cc1c2n(c(OC[C@@H]3COCCO3)cc1=O)CCc1cc(OS(C)(=O)=O)ccc1-2 [Compound 56, [4-[[(2S)-1,4-dioxan-2-yl]methoxy]-1-methyl-2-oxo-6,7-dihydrobenzo[a]quinolizin-9-yl] methanesulfonate]
0.01 to 100 nM | Cc1c2n(c(OC[C@@H]3CCCO3)cc1=O)CCc1cc(OCc3ccccn3)ccc1-2 [Compound 57, 1-methyl-9-(2-pyridylmethoxy)-4-[[(2S)-tetrahydrofuran-2-yl]methoxy]-6,7-dihydrobenzo[a]quinolizin-2-one]
0.01 to 100 nM | Cc1c2n(c(OC[C@@H]3COCCO3)cc1=O)CCc1cc(OC(F)F)ccc1-2 [Compound 59, 9-(difluoromethoxy)-4-[[(2S)-1,4-dioxan-2-yl]methoxy]-1-methyl-6,7-dihydrobenzo[a]quinolizin-2-one]
0.01 to 100 nM | Cc1c2n(c(OC[C@@H]3COCCO3)cc1=O)CCc1cc(OC[C@@H]3COCCO3)ccc1-2 [Compound 62, 4,9-bis[[(2S)-1,4-dioxan-2-yl]methoxy]-1-methyl-6,7-dihydrobenzo[a]quinolizin-2-one]
0.01 to 100 nM | Cc1c2n(c(OC[C@@H]3COCCO3)cc1=O)CCc1cc(Sc3ccccc3)ccc1-2 [Compound 64, 4-[[(2S)-1,4-dioxan-2-yl]methoxy]-1-methyl-9-phenylsulfanyl-6,7-dihydrobenzo[a]quinolizin-2-one]
> 1000 nM | Cc1c2n(c(OC[C@@H]3COCCO3)cc1=O)CCc1cc(N3CCNCC3)ccc1-2 [Compound 66, 4-[[(2S)-1,4-dioxan-2-yl]methoxy]-1-methyl-9-piperazin-1-yl-6,7-dihydrobenzo[a]quinolizin-2-one]
100 to 500 nM | Cc1c2n(c(OC[C@@H]3COCCO3)cc1=O)CCc1cc(S(=O)(=O)c3ccccc3)ccc1-2 [Compound 67, 9-(benzenesulfonyl)-4-[[(2S)-1,4-dioxan-2-yl]methoxy]-1-methyl-6,7-dihydrobenzo[a]quinolizin-2-one]
0.01 to 100 nM | Cc1c2n(c(OC[C@@H]3COCCO3)cc1=O)CCc1cc(N3CCN(S(C)(=O)=O)CC3)ccc1-2 [Compound 68]
